For data set [1] the following is noted: cited from earlier work.
The nature of data set [2]: Performance test: solvency of G1652 resin. The format is physicochemical. The conditions noted are these: scale 1 = completely insoluble, 10 = completely soluble, >=6 soluble; 0.5 mL, ~20 mg resin, 22° C., 1 hour. As to the method:
(§1) Several compounds were combined in different initial blends (Table 1). Standardized performance tests on solvency of a variety of resins, including (but not limited to) Kraton resins G1652, KR1164, KR1171, and G1726, Sukorez resin SU100S, and paraffin wax.
(§2) The performance tests on resins were performed as follows: The addition of 0.5 mL of each formulation to an individual screw-cap vial containing a stirbar and resin (G1652: ˜20 mg, SU100S: ˜40 mg, G1726: ˜25 mg, KR1164: ˜20 mg, KR1171, ˜20 mg, paraffin wax: ˜55 mg). The vials were tightly capped and solutions were stirred on a stirplate (400 rpm) at 22° C. for 1 hour. The stirbar was removed and solvency was observed, photos of the results were taken (Formulations 1-27, G1652 and SU100S). The odor of the blends was also tested empirically. Evaporation rates were calculated based on weight averages (% by volume) of individual components.

A short description of data set [3]: Performance test: solvency of SU100S resin. The format is physicochemical. Conditions: scale 1 = completely insoluble, 10 = completely soluble, >=6 soluble; 0.5 mL, ~40 mg resin, 22° C., 1 hour. As for the experimental part: as §1, §2

The structures appear in SMILES notation.

With `COC(C)=O` [Methyl acetate], the stability result in data set [1] (in the presence of strong aqueous bases or aqueous acids) was “not stable”. In addition, the solubility in water in data set [1] (room temperature) is 25%.

As for `FC(F)(F)c1ccc(Cl)cc1` [Formulation 26, para-chlorobenzotrifluoride], in data set [2], the G1652 solvency is 10. Moreover, the SU100S solvency in data set [3] is reported as 10.

In turn, `CCCCCC` [Formulation 27, hexanes] registered a G1652 solvency in data set [2] of 10. In data set [3], this molecule showed an SU100S solvency of 10.

The record behind these values is US20180179129A1, “SOLVENT COMPOSITIONS FOR USE AS HEXANE REPLACEMENTS” (TBF ENVIRONMENTAL TECHNOLOGY INC., priority 2015, published 2018).
